Tests used:
[1] = test system: N^α -acetyltransferase activity of crude yeast lysate, wild-type (AAA1) strain T3A; assay: N^α -acetylation of peptide substrates by crude yeast lysate, wild-type strain; assay type: biochemical, Saccharomyces cerevisiae; conditions: for Activity (%) AAA1: crude lysate of wild-type strain T3A, mean ± SD (N=3-5), normalized to human adrenocorticotropic hormone (1-24), 50 μM peptide
Method: (§1) N^α -acetyltransferase activity was determined as previously described [Lee et al., J. Biol. Chem. 263:14948-14955 (1988)]. Aliquots of the lysate or chromatographic fractions were added to 1.5 ml Eppendorf tubes containing a reaction mixture of 50 mM HEPES, pH 7.4, 150 mM KCl, 1 mM DTT, 25 μM [^3 H] acetyl coenzyme A (0.5 μCi) and 50 μM synthetic peptide with an adjusted final volume of 100 μl. The assay mixture was incubated at 30° C. for 30 min. The reaction was stopped by adding 17 μl of 0.5M acetic acid and chilled in an ice bath. The reaction samples were filtered through SP membrane discs (Cuno) (previously pre-swollen in 0.5M acetic acid), and then washed three times with 1 ml of 0.5M acetic acid on a Millipore 1225 sampling manifold. The partially dried membranes were placed in scintillation cocktail and counted with a Beckman LS 3801 scintillation counter. One unit of activity was defined as the amount of enzyme able to transfer 1 pmol of [^3 H] acetyl group from [^3 H] acetyl coenzyme A to synthetic peptide per min under standard enzyme assay conditions defined above.
(§2) The wild-type (containing endogenous N^α -acetyltransferase activity) and the aaa1 (lacking endogenous N^α -acetyltransferase activity) strains were T3A and T3A-a, respectively (Lee, F-J. S., et al., J. Bacteriol. 171, 5795-5802 (1989)). Human adrenocorticotropic hormone (1-24), yeast alcohol dehydrogenase (1-24), and human superoxide dismutase (1-24) have either serine or alanine as amino-terminal residues, while proteinase A inhibitor 3 has a methionine residue. The synthesis of the peptide substrates, the preparation of the crude yeast homogenate, and the assay of enzyme activity were as previously described by Lee et al. (Lee, F-J. S., et al., J. Biol. Chem. 263:14948 (1988); Kamitani, K., et al., J. Biol. Chem. 264:13188 (1989)). The numbers in parentheses refer to the residue numbers, and the letters in parentheses specify the amino acid sequence. Abbreviations: A (alanine), C (cysteine), D (aspartic acid), E (glutamic acid), F (phenylalanine), G (glycine), H (histidine), I (isoleucine), K (lysine), L (leucine), M (methionine), N (asparagine), P (proline), Q (glutamine), R (arginine), S (serine), T (threonine), V (valine), W (tryptophan). Data are reported as mean activity±SD (N=3-5) and are normalized to the activity of the homogenate towards human adrenocorticotropic hormone (1-24).

[2] = biological target: T1, N^α -acetyltransferase activity of crude yeast lysate, aaa1 mutant strain T3A-a (Saccharomyces cerevisiae, UniProt Q06504); assay: N^α -acetylation of peptide substrates by crude yeast lysate, aaa1 mutant strain; assay type: biochemical; conditions: for Activity (%) aaa1: crude lysate of aaa1 mutant strain T3A-a, mean ± SD (N=3-5), normalized to human adrenocorticotropic hormone (1-24), 50 μM peptide
T1 construct: a crude yeast homogenate from the aaa1 mutant strain; endogenous in cells; host or cells: Saccharomyces cerevisiae strain T3A-a (aaa1), crude lysate
T1 sequence (Q06504 1-195): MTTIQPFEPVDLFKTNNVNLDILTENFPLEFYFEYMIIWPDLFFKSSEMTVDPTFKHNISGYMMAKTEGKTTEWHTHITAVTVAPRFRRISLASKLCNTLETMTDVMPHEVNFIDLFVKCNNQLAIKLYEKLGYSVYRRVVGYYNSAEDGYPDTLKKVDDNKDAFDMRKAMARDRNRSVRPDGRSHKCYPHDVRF
T1 sequence (Q12387 1-796 partner): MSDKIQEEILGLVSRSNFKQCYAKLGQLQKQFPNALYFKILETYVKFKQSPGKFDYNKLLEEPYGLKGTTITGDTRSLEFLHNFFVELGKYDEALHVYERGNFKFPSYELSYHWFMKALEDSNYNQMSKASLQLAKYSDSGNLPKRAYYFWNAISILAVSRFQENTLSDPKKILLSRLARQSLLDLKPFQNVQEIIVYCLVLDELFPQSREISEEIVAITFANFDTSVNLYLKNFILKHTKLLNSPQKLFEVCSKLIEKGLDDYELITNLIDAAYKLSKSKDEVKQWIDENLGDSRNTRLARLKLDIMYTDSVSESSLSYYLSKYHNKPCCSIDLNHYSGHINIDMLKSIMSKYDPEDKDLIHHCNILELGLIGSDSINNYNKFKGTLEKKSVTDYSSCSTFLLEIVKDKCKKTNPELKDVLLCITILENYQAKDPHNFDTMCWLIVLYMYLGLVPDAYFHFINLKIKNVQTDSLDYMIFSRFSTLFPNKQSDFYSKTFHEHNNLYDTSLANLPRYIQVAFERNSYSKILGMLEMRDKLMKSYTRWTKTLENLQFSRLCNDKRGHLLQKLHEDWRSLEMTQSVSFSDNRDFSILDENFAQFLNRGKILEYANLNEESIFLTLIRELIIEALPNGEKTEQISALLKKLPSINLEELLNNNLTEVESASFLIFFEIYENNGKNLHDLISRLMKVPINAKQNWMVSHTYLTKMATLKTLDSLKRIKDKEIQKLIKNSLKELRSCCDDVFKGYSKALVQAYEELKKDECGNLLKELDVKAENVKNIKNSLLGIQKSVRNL
Method: as §1, §2

Row | Substance | Activity (%) AAA1 [1] | acetylation of the peptide substrate by wild-type strain ([1]; crude lysate, wild-type strain) | Activity (%) aaa1 [2] | acetylation of the peptide substrate by aaa1 mutant ([2]; crude lysate, aaa1 mutant)
1 | MNTDQQKVSEIFQSSKEKLQGDAK (MNTDQQKVSEIFQSSKEKLQGDAK) [Proteinase A Inhibitor 3 (1-24) (Yeast)] | 75 ± 5% | capable of acetylating | 80 ± 5% | capable of acetylating
2 | SIPETQKGVIFYESHGKLEYKDIP (SIPETQKGVIFYESHGKLEYKDIP) [Alcohol dehydrogenase (1-24) (Yeast)] | 102 ± 5% |  | 0% | 
3 | SYSMEHFRWGKPVGKKRRPVKVYP | 100 ± 5% |  | 0% | 
